From ChEMBL document CHEMBL4665659, “Utilizing comprehensive and mini-kinome panels to optimize the selectivity of quinoline inhibitors for cyclin G associated kinase (GAK)” (Bioorg Med Chem Lett, 2019)
Each block holds one molecule with its values, some of them ahead of it.

Experiments:
[1] = molecular target: T1, Cyclin-G-associated kinase (Homo sapiens, UniProt O14976); test: Binding affinity to human wild type partial length GAK (G13 to Y338 residues) expressed in bacterial expression system by KinomeScan method
T1 sequence (O14976 whole entry): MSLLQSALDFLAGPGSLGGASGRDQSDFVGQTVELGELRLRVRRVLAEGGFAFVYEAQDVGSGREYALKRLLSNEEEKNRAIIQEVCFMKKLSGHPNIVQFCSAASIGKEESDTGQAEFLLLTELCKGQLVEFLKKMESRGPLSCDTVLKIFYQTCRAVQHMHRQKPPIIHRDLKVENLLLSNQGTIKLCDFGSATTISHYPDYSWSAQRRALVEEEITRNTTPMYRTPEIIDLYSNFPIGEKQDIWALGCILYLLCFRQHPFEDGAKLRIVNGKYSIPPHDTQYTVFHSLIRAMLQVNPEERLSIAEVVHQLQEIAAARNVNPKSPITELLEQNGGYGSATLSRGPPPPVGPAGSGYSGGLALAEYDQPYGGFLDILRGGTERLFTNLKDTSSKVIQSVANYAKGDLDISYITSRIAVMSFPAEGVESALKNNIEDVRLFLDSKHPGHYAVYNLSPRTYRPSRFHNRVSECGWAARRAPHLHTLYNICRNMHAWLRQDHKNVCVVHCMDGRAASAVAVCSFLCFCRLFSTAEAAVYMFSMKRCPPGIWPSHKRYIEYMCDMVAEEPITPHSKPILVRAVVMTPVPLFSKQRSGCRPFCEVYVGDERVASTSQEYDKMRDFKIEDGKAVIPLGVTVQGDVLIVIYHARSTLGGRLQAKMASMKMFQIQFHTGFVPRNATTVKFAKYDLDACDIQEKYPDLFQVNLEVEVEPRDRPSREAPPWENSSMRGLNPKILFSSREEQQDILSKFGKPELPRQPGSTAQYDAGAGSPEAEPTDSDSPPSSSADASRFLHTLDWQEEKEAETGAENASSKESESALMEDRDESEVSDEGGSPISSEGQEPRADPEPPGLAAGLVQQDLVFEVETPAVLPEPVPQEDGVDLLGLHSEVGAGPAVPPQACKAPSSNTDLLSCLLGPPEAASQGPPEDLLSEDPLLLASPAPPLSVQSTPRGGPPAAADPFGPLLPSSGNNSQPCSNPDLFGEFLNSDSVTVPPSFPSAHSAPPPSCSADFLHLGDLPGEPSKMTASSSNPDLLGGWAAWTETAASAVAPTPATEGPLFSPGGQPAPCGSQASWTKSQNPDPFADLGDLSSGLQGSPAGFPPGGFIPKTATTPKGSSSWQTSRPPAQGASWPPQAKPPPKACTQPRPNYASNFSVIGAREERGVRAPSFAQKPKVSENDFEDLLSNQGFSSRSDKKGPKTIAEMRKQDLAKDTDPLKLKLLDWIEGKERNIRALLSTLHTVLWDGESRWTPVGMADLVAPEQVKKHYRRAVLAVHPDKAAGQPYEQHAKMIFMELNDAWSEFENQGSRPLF

[2] = molecular target: T2, Tyrosine-protein kinase ABL1 (Homo sapiens, UniProt P00519); test: Binding affinity to human wild type partial length non-phosphorylated ABL1 (S229 to K512 residues) expressed in mammalian expression system by Kinomescan method
T2 sequence (P00519 whole entry, the tested form may be a part): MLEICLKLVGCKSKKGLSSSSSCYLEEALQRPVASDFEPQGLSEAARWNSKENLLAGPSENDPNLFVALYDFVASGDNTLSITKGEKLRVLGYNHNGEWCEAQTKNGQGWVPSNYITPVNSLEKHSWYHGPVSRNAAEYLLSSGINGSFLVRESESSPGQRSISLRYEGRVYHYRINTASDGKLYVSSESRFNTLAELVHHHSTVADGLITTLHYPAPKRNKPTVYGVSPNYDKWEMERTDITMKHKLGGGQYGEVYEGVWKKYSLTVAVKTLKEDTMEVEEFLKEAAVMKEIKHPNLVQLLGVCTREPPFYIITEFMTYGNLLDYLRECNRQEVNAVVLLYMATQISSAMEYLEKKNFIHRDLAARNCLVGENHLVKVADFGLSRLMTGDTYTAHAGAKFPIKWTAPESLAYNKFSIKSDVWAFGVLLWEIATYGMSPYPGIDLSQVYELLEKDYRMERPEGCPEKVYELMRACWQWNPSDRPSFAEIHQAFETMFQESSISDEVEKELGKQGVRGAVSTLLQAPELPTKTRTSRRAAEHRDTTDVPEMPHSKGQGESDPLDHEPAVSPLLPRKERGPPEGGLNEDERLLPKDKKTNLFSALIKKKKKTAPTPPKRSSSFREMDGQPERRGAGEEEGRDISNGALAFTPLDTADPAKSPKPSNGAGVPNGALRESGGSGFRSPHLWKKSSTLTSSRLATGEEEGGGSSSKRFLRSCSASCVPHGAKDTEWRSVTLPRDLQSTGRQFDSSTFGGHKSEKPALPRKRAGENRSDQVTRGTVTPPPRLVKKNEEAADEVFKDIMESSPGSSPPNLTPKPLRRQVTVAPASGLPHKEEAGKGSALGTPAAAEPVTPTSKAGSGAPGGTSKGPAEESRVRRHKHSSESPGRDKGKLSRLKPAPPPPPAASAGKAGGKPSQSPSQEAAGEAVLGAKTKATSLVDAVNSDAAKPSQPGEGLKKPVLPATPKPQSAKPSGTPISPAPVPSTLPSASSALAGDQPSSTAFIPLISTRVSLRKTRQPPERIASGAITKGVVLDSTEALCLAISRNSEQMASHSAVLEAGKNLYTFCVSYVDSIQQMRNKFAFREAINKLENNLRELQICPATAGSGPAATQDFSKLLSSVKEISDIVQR

[3] = molecular target: T2, Tyrosine-protein kinase ABL1; test: Binding affinity to human wild type partial length phosphorylated ABL1 (S229 to K512 residues) expressed in mammalian expression system by Kinomescan method
Activin receptor type-1 = Activin receptor type-1 (Homo sapiens, UniProt Q04771); test: Binding affinity to human wild type partial length ACVR1 (C188 to C509 residues) expressed in bacterial expression system by Kinomescan method
Activin receptor type-1, sequence (Q04771 whole entry, the tested form may be a part): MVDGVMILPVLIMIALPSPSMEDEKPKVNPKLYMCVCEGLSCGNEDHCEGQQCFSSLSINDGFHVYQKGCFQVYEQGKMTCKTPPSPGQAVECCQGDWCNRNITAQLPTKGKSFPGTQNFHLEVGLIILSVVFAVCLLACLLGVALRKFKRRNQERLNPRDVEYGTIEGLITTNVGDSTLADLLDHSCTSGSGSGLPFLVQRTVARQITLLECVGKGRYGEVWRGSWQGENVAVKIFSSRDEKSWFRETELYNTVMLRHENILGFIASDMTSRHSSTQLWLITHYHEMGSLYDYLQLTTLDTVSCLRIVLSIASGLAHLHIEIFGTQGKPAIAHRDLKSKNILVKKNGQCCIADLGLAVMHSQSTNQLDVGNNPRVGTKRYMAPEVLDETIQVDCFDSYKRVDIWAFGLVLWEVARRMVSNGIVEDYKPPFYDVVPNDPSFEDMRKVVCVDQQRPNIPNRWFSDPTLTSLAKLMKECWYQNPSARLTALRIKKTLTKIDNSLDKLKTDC

[4] = molecular target: Bone morphogenetic protein receptor type-1B (Homo sapiens, UniProt O00238); test: Binding affinity to human wild type partial length BMPR1B (D178 to L502 residues) expressed in mammalian expression system by Kinomescan method
Bone morphogenetic protein receptor type-1B, sequence (O00238 whole entry, the tested form may be a part): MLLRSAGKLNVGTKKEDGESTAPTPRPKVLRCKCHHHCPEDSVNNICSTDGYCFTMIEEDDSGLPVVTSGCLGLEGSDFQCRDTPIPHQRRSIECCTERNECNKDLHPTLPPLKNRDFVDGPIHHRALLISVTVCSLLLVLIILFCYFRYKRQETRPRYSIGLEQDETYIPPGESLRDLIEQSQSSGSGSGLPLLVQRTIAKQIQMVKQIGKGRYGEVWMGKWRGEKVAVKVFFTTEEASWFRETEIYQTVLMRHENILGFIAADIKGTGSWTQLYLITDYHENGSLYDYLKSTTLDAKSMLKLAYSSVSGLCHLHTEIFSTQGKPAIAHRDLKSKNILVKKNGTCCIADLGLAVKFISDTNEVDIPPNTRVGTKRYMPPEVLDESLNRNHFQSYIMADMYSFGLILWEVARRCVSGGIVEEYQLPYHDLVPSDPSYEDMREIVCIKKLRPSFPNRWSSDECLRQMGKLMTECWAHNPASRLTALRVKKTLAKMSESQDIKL

Ephrin type-A receptor 1 = Ephrin type-A receptor 1 (Homo sapiens, UniProt P21709); test: Binding affinity to human wild type partial length EphA1 (V588 to I913 residues) expressed in bacterial expression system by Kinomescan method
Ephrin type-A receptor 1, sequence (P21709 whole entry, the tested form may be a part): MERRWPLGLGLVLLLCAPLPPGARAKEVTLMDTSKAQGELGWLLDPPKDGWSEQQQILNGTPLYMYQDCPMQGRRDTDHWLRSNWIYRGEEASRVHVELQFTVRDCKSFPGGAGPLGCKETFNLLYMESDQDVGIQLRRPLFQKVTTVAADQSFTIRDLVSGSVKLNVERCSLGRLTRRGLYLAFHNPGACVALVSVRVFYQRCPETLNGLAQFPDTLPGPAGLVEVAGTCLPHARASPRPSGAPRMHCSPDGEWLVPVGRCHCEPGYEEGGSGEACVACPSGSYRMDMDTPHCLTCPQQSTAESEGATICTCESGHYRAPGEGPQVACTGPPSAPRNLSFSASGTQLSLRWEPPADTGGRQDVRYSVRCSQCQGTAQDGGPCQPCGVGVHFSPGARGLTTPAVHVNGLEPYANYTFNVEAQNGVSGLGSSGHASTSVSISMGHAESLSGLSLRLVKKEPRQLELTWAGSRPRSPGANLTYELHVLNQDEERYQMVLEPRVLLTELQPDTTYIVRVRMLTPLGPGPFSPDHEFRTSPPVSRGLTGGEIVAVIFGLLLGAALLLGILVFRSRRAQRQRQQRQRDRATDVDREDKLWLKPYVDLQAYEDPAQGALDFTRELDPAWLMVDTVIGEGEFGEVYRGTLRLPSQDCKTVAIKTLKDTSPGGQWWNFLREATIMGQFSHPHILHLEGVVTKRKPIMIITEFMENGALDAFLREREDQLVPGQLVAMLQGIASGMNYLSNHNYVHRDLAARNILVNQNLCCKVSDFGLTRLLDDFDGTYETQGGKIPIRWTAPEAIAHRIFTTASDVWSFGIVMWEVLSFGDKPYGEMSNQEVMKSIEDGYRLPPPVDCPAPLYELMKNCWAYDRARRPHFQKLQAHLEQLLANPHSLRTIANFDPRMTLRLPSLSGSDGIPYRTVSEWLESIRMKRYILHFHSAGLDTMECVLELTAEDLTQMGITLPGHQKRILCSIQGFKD

Ephrin type-A receptor 8 = Ephrin type-A receptor 8 (Homo sapiens, UniProt P29322); test: Binding affinity to human wild type partial length EphA8 (Q608 to C920 residues) expressed in bacterial expression system by Kinomescan method
Ephrin type-A receptor 8, sequence (P29322 whole entry, the tested form may be a part): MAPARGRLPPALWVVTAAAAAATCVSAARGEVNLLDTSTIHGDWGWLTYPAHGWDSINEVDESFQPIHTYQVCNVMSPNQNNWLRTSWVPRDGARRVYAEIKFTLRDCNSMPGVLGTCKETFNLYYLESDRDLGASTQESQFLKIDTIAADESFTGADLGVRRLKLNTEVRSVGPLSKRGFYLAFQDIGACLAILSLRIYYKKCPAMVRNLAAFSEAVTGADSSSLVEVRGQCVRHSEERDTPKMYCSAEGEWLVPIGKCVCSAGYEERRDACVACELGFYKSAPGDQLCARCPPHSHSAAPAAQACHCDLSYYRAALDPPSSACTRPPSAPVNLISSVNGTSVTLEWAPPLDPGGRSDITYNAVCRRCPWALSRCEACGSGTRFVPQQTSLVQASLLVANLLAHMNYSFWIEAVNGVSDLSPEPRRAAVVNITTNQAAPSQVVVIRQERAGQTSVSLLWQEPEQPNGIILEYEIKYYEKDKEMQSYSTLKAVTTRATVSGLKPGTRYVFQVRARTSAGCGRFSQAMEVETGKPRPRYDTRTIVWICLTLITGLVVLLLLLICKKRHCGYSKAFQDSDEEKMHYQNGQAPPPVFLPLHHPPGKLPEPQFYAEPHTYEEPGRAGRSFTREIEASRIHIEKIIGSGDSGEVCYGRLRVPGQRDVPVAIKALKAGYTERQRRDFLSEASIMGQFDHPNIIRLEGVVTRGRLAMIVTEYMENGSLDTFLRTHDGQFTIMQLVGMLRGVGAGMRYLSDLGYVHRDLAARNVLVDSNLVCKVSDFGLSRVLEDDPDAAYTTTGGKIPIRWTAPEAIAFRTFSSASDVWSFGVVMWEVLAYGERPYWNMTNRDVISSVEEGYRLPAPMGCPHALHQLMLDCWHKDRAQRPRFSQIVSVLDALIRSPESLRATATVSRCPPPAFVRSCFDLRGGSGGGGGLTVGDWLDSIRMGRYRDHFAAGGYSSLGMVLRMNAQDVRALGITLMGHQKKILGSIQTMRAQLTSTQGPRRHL

Ephrin type-B receptor 6 = molecular target: T3, Ephrin type-B receptor 6 (Homo sapiens, UniProt O15197); test: Binding affinity to human wild type partial length EphB6 (Q634 to P948 residues) expressed in mammalian expression system by Kinomescan method
T3 sequence (O15197 whole entry): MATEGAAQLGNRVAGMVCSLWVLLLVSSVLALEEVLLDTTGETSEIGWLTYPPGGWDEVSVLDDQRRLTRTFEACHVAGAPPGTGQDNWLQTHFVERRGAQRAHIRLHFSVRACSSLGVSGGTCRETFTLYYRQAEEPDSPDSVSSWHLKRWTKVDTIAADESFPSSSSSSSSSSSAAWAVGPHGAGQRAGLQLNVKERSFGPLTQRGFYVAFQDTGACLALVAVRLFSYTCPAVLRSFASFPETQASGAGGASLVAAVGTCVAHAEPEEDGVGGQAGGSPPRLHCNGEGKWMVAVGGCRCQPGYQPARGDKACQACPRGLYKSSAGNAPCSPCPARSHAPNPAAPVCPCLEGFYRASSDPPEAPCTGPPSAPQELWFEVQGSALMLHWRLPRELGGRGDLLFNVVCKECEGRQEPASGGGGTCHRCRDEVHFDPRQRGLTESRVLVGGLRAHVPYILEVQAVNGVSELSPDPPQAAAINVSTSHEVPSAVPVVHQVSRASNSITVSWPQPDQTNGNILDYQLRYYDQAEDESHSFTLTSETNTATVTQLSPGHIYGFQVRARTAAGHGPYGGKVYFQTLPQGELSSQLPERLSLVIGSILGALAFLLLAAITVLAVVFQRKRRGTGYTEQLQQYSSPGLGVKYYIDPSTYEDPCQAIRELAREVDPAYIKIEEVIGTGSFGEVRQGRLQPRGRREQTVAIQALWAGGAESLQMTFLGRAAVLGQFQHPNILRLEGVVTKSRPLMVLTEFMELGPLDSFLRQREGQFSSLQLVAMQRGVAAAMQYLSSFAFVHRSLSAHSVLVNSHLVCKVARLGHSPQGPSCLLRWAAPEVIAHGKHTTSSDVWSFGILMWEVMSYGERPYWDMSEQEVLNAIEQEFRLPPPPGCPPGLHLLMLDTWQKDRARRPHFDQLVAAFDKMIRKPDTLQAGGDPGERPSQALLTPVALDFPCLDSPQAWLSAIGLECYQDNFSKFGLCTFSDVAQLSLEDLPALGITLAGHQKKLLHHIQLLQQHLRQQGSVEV

[5] = molecular target: Tyrosine-protein kinase Lck (Homo sapiens, UniProt P06239); test: Binding affinity to wild-type human partial length LCK (R207 to P509 residues) expressed in bacterial expression system by Kinomescan method
Tyrosine-protein kinase Lck, sequence (P06239 whole entry, the tested form may be a part): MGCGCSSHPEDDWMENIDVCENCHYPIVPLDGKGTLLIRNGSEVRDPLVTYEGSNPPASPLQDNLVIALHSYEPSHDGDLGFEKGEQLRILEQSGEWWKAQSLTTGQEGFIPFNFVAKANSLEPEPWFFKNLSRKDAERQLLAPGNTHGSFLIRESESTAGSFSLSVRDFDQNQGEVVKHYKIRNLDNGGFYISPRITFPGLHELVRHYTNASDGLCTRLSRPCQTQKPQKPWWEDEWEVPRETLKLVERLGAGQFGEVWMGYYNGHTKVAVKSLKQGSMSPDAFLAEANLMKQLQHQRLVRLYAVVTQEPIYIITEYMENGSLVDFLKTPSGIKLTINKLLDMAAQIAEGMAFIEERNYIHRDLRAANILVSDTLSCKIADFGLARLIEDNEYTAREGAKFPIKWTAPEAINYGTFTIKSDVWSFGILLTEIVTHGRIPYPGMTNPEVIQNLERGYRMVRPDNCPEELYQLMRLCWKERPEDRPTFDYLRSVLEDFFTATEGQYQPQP

[6] = molecular target: Dual specificity mitogen-activated protein kinase kinase 5 (Homo sapiens, UniProt Q13163); test: Binding affinity to human wild type partial length MEK5 (L98 to P448 residues) expressed in mammalian expression system by Kinomescan method
[7] = molecular target: Receptor-interacting serine/threonine-protein kinase 2 (Homo sapiens, UniProt O43353); test: Binding affinity to wild-type human partial length RIPK2 (M1 to K310 residues) expressed in bacterial expression system by Kinomescan method
[8] = molecular target: RAF proto-oncogene serine/threonine-protein kinase (Homo sapiens) (UniProt P04049); test: Inhibition of human wild type partial length C-Raf (I330 to T640 residues) expressed in bacterial expression system at 1 uM by Kinomescan method relative to control
[9] = molecular target: Atypical kinase COQ8A, mitochondrial (Homo sapiens, UniProt Q8NI60); test: Binding affinity to human wild type full-length ADCK3 expressed in bacterial expression system by Kinomescan method
[10] = molecular target: Interleukin-1 receptor-associated kinase 3 (Homo sapiens, UniProt Q9Y616); test: Binding affinity to human wild type partial length IRAK3 (V147 to E596 residues) expressed in bacterial expression system by Kinomescan method
[11] = molecular target: T1, Cyclin-G-associated kinase; test: Inhibition of GAK (unknown origin) by in-cell pulse based assay
[12] = molecular target: Serine/threonine-protein kinase NLK (Homo sapiens, UniProt Q9UBE8); test: Binding affinity to wild-type human full length NLK expressed in bacterial expression system by Kinomescan method
[13] = molecular target: Tyrosine-protein kinase TXK (Homo sapiens, UniProt P42681); test: Binding affinity to wild-type human partial length TXK (L238 to W527 residues) expressed in bacterial expression system by Kinomescan method

Kd [1]: 0.0063 µM
Compound: COc1cc(Nc2ccnc3ccc(Cl)cc23)cc(OC)c1OC

Kd [1]: 0.011 µM | Kd [2]: 0.17 µM | Kd [3]: 0.092 µM | Kd (Activin receptor type-1): 1.3 µM | Kd [4]: 0.28 µM | Kd (Ephrin type-A receptor 1): 1.3 µM | Kd (Ephrin type-A receptor 8): 0.56 µM | Kd (Ephrin type-B receptor 6): 0.13 µM | Kd [5]: 0.35 µM | Kd [6]: 0.43 µM | Kd [7]: 0.19 µM
Compound: COc1cc2nccc(Nc3cc(OC)c(OC)c(OC)c3)c2cc1OC

Kd [1]: 0.0049 µM
Compound: COc1cc(Nc2ccnc3ccc(C#N)cc23)cc(OC)c1OC

Kd [1]: 0.035 µM | inhibition [8]: 20%
Compound: COc1ccc2c(Nc3cc(OC)c(OC)c(OC)c3)ccnc2c1

Kd [2]: 1.2 µM | Kd (Activin receptor type-1): 1 µM | Kd [9]: 0.26 µM | Kd (Ephrin type-B receptor 6): 0.71 µM
Compound: COc1cc(Nc2ccnc3ccc(Br)cc23)cc(OC)c1OC

Kd [1]: 0.048 µM
Compound: COc1ccc2nccc(Nc3cc(OC)c(OC)c(OC)c3)c2c1

Kd [1]: 9.9 µM | Kd [10]: 0.48 µM | IC50 [11]: > 10 µM
Compound: COc1cc(N(C)c2ccnc3ccc(C(F)(F)F)cc23)cc(OC)c1OC

Kd [1]: > 30 µM | IC50 [11]: > 10 µM
Compound: COc1cc(Nc2cc(C)nc3ccc(C(F)(F)F)cc23)cc(OC)c1OC

Kd [1]: 0.17 µM
Compound: COc1cc(Nc2ccnc3ccccc23)cc(OC)c1OC

Kd [2]: 1.9 µM | Kd (Ephrin type-A receptor 1): 3.1 µM | Kd (Ephrin type-A receptor 8): 1.1 µM | Kd (Ephrin type-B receptor 6): 1.6 µM | Kd [5]: 1.1 µM | Kd [12]: 0.69 µM | Kd [13]: 1.4 µM
Compound: COc1cc(Nc2ccnc3ccc(C(F)(F)F)cc23)cc(OC)c1OC

Kd [1]: 0.0086 µM
Compound: COc1cc(Nc2ccnc3ccc(I)cc23)cc(OC)c1OC

Kd [1]: 0.034 µM
Compound: COc1cc(Nc2ccnc3ccc(C(C)(C)C)cc23)cc(OC)c1OC

Kd [1]: 0.13 µM
Compound: COc1cc(Nc2ncnc3ccc(C(F)(F)F)cc23)cc(OC)c1OC
